{
  "source": "patent US20250032506A1",
  "about": "“GLUCOCORTICOID RECEPTOR BLOCKADE WITH MIFEPRISTONE TO SENSITIZE PANCREATIC CANCER TO IMMUNOTHERAPY” (BOARD OF REGENTS, THE UNIVERSITY OF TEXAS SYSTEM, priority 2021, published 2025)",
  "key": {"[1]": {"test_system": "HY19636 cells", "experiment": "qPCR and flow cytometry of PD-L1, MHC-I and B2M in HY19636 cells", "format": "cell-based, mouse", "details": "MIFE 20 μM, 48 h", "source_text": "(§1) The male PDAC cell lines HY24409 and HY24160 and the female PDAC cell line HY19636 were established from KPC mice (p48-Cre; Kras^LSL-G12D/+; Trp53^loxP/+) that were backcrossed to a C57BL/6 background (purity: ˜ 98%). (See Bardeesy, N., et al. supra). The human PDAC cell lines SU86.86 ([…]), SW1990 ([…]), BXPC-3 ([…]), Miapaca-2 ([…]), Capan-1 ([…]), ASPC-1 ([…]), Hs766T ([…]), Colo357/FG ([…]), L3.6PL ([…]), Panc28 ([…]), Capan-2 ([…]), CF-Pac-1 ([…]), Panc3 (sex unknown), Panc1 ([…]), Panc48 (sex unknown), and HPAC ([…]) were from Mien-Chie Hung's lab stock. The HY24409, HY24160, HY19636, SU86.86, SW1990, and Hs766T cell lines were cultured in RPMI 1640 (Corning, 10-041-CV) supplemented with 10% fetal bovine serum (FBS) (Gibco, 10438-034) and 1% penicillin/streptomycin (Sigma, P4333). The BXPC-3, Miapaca-2, Capan-1, ASPC-1, Colo357/FG, L3.6PL, Panc28, Capan-2, CF-Pac-1, Panc3, Panc1, Panc48, and HPAC cell lines were cultured in DMEM/F-12 (Corning, 10-092-CV) supplemented with 10% FBS and 1% penicillin/streptomycin. Cells were grown in a humidified incubator with 5% CO2 at 37° C., and low-passage stocks were maintained in a centralized lab cell bank. Short tandem repeat profiling and mycoplasma tests were done by the Cytogenetics and Cell Authentication Core at MD Anderson Cancer Center.\n(§2) Immunity 54, 1561-1577 e1567 (2021)."}, "[2]": {"test_system": "HPAC cells", "experiment": "qPCR and immunoblotting of PD-L1 and MHC-I in HPAC cells", "format": "cell-based, human", "details": "MIFE 20 μM (qPCR) or indicated doses (immunoblot), 72 h", "source_text": "as §1, with “Center. […]” for “Center.”"}, "[3]": {"test_system": "orthotopic HY24409 tumors", "experiment": "CyTOF, flow cytometry, qPCR and multiplex immunofluorescent staining of orthotopic HY24409 tumors", "format": "in vivo, mouse", "method": "Cancer Discov 10, 1374-1387 (2020). […] CyTOF data were analyzed by FlowJo and Cytobank.\nas §2"}, "[4]": {"test_system": "orthotopic HY24160 tumors", "method": "Orthotopic pancreatic tumor size was determined by MRI. Subcutaneous tumor size was measured with a caliper. […] Animal body weight was measured throughout the study."}, "[5]": {"test_system": "SW1990 cells", "experiment": "qPCR, immunoblotting and flow cytometry of PD-L1 and MHC-I pathway expression in SW1990 cells", "format": "cell-based, human", "method": "as §1, with “(See” for “The male PDAC cell lines HY24409 and HY24160 and the female PDAC cell line HY19636 were established from KPC mice (p48-Cre; Kras^LSL-G12D/+; Trp53^loxP/+) that were backcrossed to a C57BL/6 background (purity: ˜ 98%). (See”, “The HY24409, HY24160, HY19636, SU86.86, SW1990, and Hs766T cell lines were cultured in RPMI 1640 (Corning, 10-041-CV) supplemented with 10% fetal bovine serum (FBS) (Gibco, 10438-034) and 1% penicillin/streptomycin (Sigma, P4333).” left out\nMembranes were blocked with 10% non-fat milk in TBST and incubated with the primary antibody at 4° C. overnight, followed by incubation with the secondary antibody conjugated with horseradish peroxidase (HRP)."}, "[6]": {"test_system": "BXPC-3 cells", "experiment": "qPCR and immunoblotting of PD-L1 and MHC-I in BXPC-3 cells", "format": "cell-based, human", "details": "MIFE 20 μM (qPCR) or indicated doses (immunoblot), 72 h", "source_text": "as §1, with “Center. […]” for “Center.”"}, "[7]": {"details": "CyTOF, orthotopic HY24409 tumors, vs vehicle or control shRNA"}, "[8]": {"details": "flow cytometric analysis, HY24409 tumors"}, "[9]": {"details": "flow cytometry and qPCR, HY24160 tumors"}},
  "data": [
    {"smiles": "CC#C[C@]1(O)CC[C@H]2[C@@H]3CCC4=CC(=O)CCC4=C3[C@@H](c3ccc(N(C)C)cc3)C[C@@]21C", "note": "[mifepristone]", "values": [
      {"measurement": "MHC-I and B2M at mRNA and surface protein levels", "setting": "[1]", "value": "upregulated"},
      {"measurement": "PD-L1 at mRNA and surface protein levels", "setting": "[1]", "value": "downregulated"},
      {"measurement": "MHC-I at both mRNA and protein levels", "setting": "[2]", "value": "significantly upregulated"},
      {"measurement": "PD-L1 at both mRNA and protein levels", "setting": "[2]", "value": "downregulated"},
      {"measurement": "abundance of CD4+ T cells, regulatory T cells, natural killer cells, B cells, dendritic cells, macrophages, and myeloid-derived suppressor cells", "setting": "[3]; CyTOF, orthotopic HY24409 tumors", "value": "No significant change"},
      {"measurement": "increase in percentage of granzyme B+ CTLs", "setting": "[3]; [7]", "value": 1.6, "unit": "fold"},
      {"measurement": "increase in percentage of tumor-infiltrating CD8+ cells", "setting": "[3]; [7]", "value": 1.9, "unit": "fold"},
      {"measurement": "cell-surface MHC-I (H-2K^b) and B2M levels in pancreatic tumors", "setting": "[3]; [8]", "value": "higher"},
      {"measurement": "cell-surface PD-L1 levels in pancreatic tumors", "setting": "[3]; [8]", "value": "lower"},
      {"measurement": "expression levels of intracellular TNFα, IFNγ, and IL-2 in tumor-associated CD8+ cells", "setting": "[3]; flow cytometry after ex vivo stimulation with PMA and ionomycin, HY24409 tumors", "value": "significantly increased"},
      {"measurement": "surface levels of T cell exhaustion markers PD-1, Tim-3, and LAG-3", "setting": "[3]; flow cytometry, CTLs in HY24409 pancreatic tumors", "value": "significant reduction"},
      {"measurement": "multiplex immunofluorescent staining of CD3, CD8, and granzyme B in pancreatic tumors", "setting": "[3]; mifepristone-treated C57BL/6 mice, HY24409", "value": "substantial enrichment"},
      {"measurement": "mRNA levels of MHC-I components (H-2k, H-2d, and B2m) in tumors", "setting": "[3]; qPCR, HY24409 tumors", "value": "upregulated"},
      {"measurement": "mRNA levels of PD-L1 and known GR-activated target genes (Klf9, Snai2, and Fn1) in tumors", "setting": "[3]; qPCR, HY24409 tumors", "value": "downregulated"},
      {"measurement": "tumor growth", "setting": "[4]; C57BL/6 mice, orthotopic HY24160, CTL-dependent manner", "value": "inhibited tumor growth"},
      {"measurement": "MHC-I expression levels", "setting": "[4]; [9]", "value": "upregulated"},
      {"measurement": "expression levels of PD-L1 and known GR-activated genes", "setting": "[4]; [9]", "value": "downregulated"},
      {"measurement": "body weight", "setting": "[4]; mouse, in vivo", "value": "without affecting body weight"},
      {"measurement": "infiltration and activity of cytotoxic T cells", "setting": "[4]; mouse, in vivo", "value": "promoted"},
      {"measurement": "PD-L1 protein", "setting": "[5]; Western blot and flow cytometric analysis, MIFE 72 h", "value": "downregulated"},
      {"measurement": "MHC-I and B2M proteins", "setting": "[5]; Western blot and flow cytometry, MIFE 72 h", "value": "upregulation"},
      {"measurement": "mRNA levels of components in the MHC-I pathway, including HLA-A, HLA-B, HLA-C, B2M, SEC61B, and SEC61G", "setting": "[5]; qPCR, MIFE 20 μM, 72 h", "value": "increased"},
      {"measurement": "mRNA levels of immune checkpoint ligands, including PD-L1, CD47, TDO, and SIGLEC15", "setting": "[5]; qPCR, MIFE 20 μM, 72 h", "value": "decreased"},
      {"measurement": "MHC-I at both mRNA and protein levels", "setting": "[6]", "value": "significantly upregulated"},
      {"measurement": "PD-L1 at both mRNA and protein levels", "setting": "[6]", "value": "downregulated"}
    ]}
  ]
}
